The supplement of paper PMC10307832

Key:
Test in all cases: relative viability (nuclei count vs DMSO), 5 days (fraction); higher = more cells survive
SW 1573 = tested on: SW 1573
Outline: (§1)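 Five library-drug doses in √10 steps were combined with a fixed anchor-drug dose, or a single drug was given alone, by pin tool to lung cancer cell lines in 1536-well plates the day after seeding. Nuclei were stained and counted after 5 days. Relative viability is the nuclei count in treated wells over that in vehicle wells, taken as the median of duplicate plates.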

LXF-289 = tested on: LXF-289
Outline: as §1

PC-14 = tested on: PC-14
Outline: as §1

EMC-BAC-2 = tested on: EMC-BAC-2
Outline: as §1

NCI-H2023 = tested on: NCI-H2023
Outline: as §1

H3255 = tested on: H3255
Outline: as §1

NCI-H2009 = tested on: NCI-H2009
Outline: as §1

NCI-H1734 = tested on: NCI-H1734
Outline: as §1

NCI-H661 = tested on: NCI-H661
Outline: as §1

HOP-62 = tested on: HOP-62
Outline: as §1

NCI-H1915 = tested on: NCI-H1915
Outline: as §1

O=c1cc(-c2cccc3c2Sc2ccccc2S3)oc(N2CCOCC2)c1 + CC(=O)c1c(C)c2cnc(Nc3ccc(N4CCNCC4)cn3)nc2n(C2CCCC2)c1=O [Palbociclib] (partner 0.5 µM)
relative viability (SW 1573; first compound 0.08 µM): 0.426
relative viability (SW 1573; first compound 0.253 µM): 0.414
relative viability (SW 1573; first compound 0.8 µM): 0.448
relative viability (SW 1573; first compound 2.53 µM): 0.377
relative viability (SW 1573; first compound 8 µM): 0.362
relative viability (LXF-289; first compound 0.08 µM): 0.61
relative viability (LXF-289; first compound 0.253 µM): 0.603
relative viability (LXF-289; first compound 0.8 µM): 0.609
relative viability (LXF-289; first compound 2.53 µM): 0.619
relative viability (LXF-289; first compound 8 µM): 0.642
relative viability (PC-14; first compound 0.08 µM): 0.552
relative viability (PC-14; first compound 0.253 µM): 0.746
relative viability (PC-14; first compound 0.8 µM): 0.578
relative viability (PC-14; first compound 2.53 µM): 0.46
relative viability (PC-14; first compound 8 µM): 0.489
relative viability (EMC-BAC-2; first compound 0.08 µM): 0.511
relative viability (EMC-BAC-2; first compound 0.253 µM): 0.529
relative viability (EMC-BAC-2; first compound 0.8 µM): 0.536
relative viability (EMC-BAC-2; first compound 2.53 µM): 0.538
relative viability (EMC-BAC-2; first compound 8 µM): 0.543
relative viability (NCI-H2023; first compound 0.08 µM): 0.379
relative viability (NCI-H2023; first compound 0.253 µM): 0.407
relative viability (NCI-H2023; first compound 0.8 µM): 0.407
relative viability (NCI-H2023; first compound 2.53 µM): 0.369
relative viability (NCI-H2023; first compound 8 µM): 0.291
relative viability (H3255; first compound 0.08 µM): 0.334
relative viability (H3255; first compound 0.253 µM): 0.295
relative viability (H3255; first compound 0.8 µM): 0.305
relative viability (H3255; first compound 2.53 µM): 0.278
relative viability (H3255; first compound 8 µM): 0.33
relative viability (NCI-H2009; first compound 0.08 µM): 0.189
relative viability (NCI-H2009; first compound 0.253 µM): 0.232
relative viability (NCI-H2009; first compound 0.8 µM): 0.225
relative viability (NCI-H2009; first compound 2.53 µM): 0.199
relative viability (NCI-H2009; first compound 8 µM): 0.213
relative viability (NCI-H1734; first compound 0.08 µM): 0.33
relative viability (NCI-H1734; first compound 0.253 µM): 0.344
relative viability (NCI-H1734; first compound 0.8 µM): 0.414
relative viability (NCI-H1734; first compound 8 µM): 0.357
relative viability (NCI-H661; first compound 0.08 µM): 0.416
relative viability (NCI-H661; first compound 0.253 µM): 0.438
relative viability (NCI-H661; first compound 0.8 µM): 0.393
relative viability (NCI-H661; first compound 2.53 µM): 0.394
relative viability (NCI-H661; first compound 8 µM): 0.379
relative viability (HOP-62; first compound 0.08 µM): 0.465
relative viability (HOP-62; first compound 0.253 µM): 0.391
relative viability (HOP-62; first compound 0.8 µM): 0.497
relative viability (HOP-62; first compound 2.53 µM): 0.512
relative viability (HOP-62; first compound 8 µM): 0.54
relative viability (NCI-H1915; first compound 0.08 µM): 0.549
relative viability (NCI-H1915; first compound 0.253 µM): 0.527
